Measurements reported in PubChem BioAssay (NCI).
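A five-concentration, 48-hour dose response in 96-well plates underlies each endpoint, interpolated linearly between surrounding concentrations. At the GI50, growth is halved. TGI denotes the concentration required for complete inhibition of growth.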

What was measured:
Test in all cases: DTP human tumour cell line panel, 48 h
CAKI-1 renal = test system: CAKI-1 renal
TK-10 renal = test system: TK-10 renal
HT29 colon = test system: HT29 colon
OVCAR-5 ovarian = test system: OVCAR-5 ovarian
SK-MEL-28 melanoma = test system: SK-MEL-28 melanoma
RPMI-8226 leukemia = test system: RPMI-8226 leukemia
IGROV1 ovarian = test system: IGROV1 ovarian
A549 NSCLC = test system: A549 NSCLC
ACHN renal = test system: ACHN renal
MCF7 breast = test system: MCF7 breast
HCC-2998 colon = test system: HCC-2998 colon
SF-539 CNS = test system: SF-539 CNS
U251 CNS = test system: U251 CNS
MALME-3M melanoma = test system: MALME-3M melanoma
NCI-H460 lung = test system: NCI-H460 lung
MOLT-4 leukemia = test system: MOLT-4 leukemia
SW-620 colon = test system: SW-620 colon
HOP-92 NSCLC = test system: HOP-92 NSCLC
UACC-62 melanoma = test system: UACC-62 melanoma
SR leukemia = test system: SR leukemia
CCRF-CEM leukemia = test system: CCRF-CEM leukemia
COLO 205 colon = test system: COLO 205 colon
SN12C renal = test system: SN12C renal
OVCAR-3 ovarian = test system: OVCAR-3 ovarian
SK-MEL-2 melanoma = test system: SK-MEL-2 melanoma
EKVX NSCLC = test system: EKVX NSCLC
HCT-15 colon = test system: HCT-15 colon
KM12 colon = test system: KM12 colon
DU-145 prostate = test system: DU-145 prostate
MDA-MB-231 breast = test system: MDA-MB-231 breast
SNB-19 CNS = test system: SNB-19 CNS
786-0 renal = test system: 786-0 renal
OVCAR-4 ovarian = test system: OVCAR-4 ovarian
HOP-62 NSCLC = test system: HOP-62 NSCLC
NCI-H23 lung = test system: NCI-H23 lung
M14 melanoma = test system: M14 melanoma
UACC-257 melanoma = test system: UACC-257 melanoma
SF-268 CNS = test system: SF-268 CNS
NCI-H522 lung = test system: NCI-H522 lung
HS 578T breast = test system: HS 578T breast
HCT-116 colon = test system: HCT-116 colon
PC-3 prostate = test system: PC-3 prostate
SK-OV-3 ovarian = test system: SK-OV-3 ovarian
A498 renal = test system: A498 renal
HL-60(TB) leukemia = test system: HL-60(TB) leukemia
OVCAR-8 ovarian = test system: OVCAR-8 ovarian
BT-549 breast = test system: BT-549 breast
RXF 393 renal = test system: RXF 393 renal
LOX IMVI melanoma = test system: LOX IMVI melanoma
UO-31 renal = test system: UO-31 renal
NCI/ADR-RES ovarian = test system: NCI/ADR-RES ovarian
SK-MEL-5 melanoma = test system: SK-MEL-5 melanoma
K-562 leukemia = test system: K-562 leukemia
SNB-75 CNS = test system: SNB-75 CNS
NCI-H226 lung = test system: NCI-H226 lung
MDA-MB-435 = test system: MDA-MB-435
T-47D breast = test system: T-47D breast
SF-295 CNS = test system: SF-295 CNS

## O=C(/C(=C/c1ccccc1)CN1CCCCC1)c1ccccc1
CAKI-1 renal
  GI50: 337 nM
  TGI: 2840 nM
TK-10 renal
  GI50: 662 nM
  TGI: 1740 nM
HT29 colon
  GI50: 518 nM
  TGI: 1270 nM
OVCAR-5 ovarian
  GI50: 1980 nM
  TGI: 3.98 µM
SK-MEL-28 melanoma
  GI50: 1630 nM
  TGI: 3.5 µM
RPMI-8226 leukemia
  GI50: 800 nM
  TGI: 5.13 µM
IGROV1 ovarian
  GI50: 1890 nM
  TGI: 6.25 µM
A549 NSCLC
  GI50: 1840 nM
  TGI: 3.92 µM
ACHN renal
  GI50: 518 nM
  TGI: 1440 nM
MCF7 breast
  GI50: 464 nM
  TGI: 2850 nM
HCC-2998 colon
  GI50: 1680 nM
  TGI: 3.11 µM
SF-539 CNS
  GI50: 2800 nM
  TGI: 10.1 µM
U251 CNS
  GI50: 1350 nM
  TGI: 3.22 µM
MALME-3M melanoma
  GI50: 1160 nM
  TGI: 3.58 µM
NCI-H460 lung
  GI50: 2050 nM
  TGI: 4.91 µM
MOLT-4 leukemia
  GI50: 403 nM
  TGI: 31.8 µM
SW-620 colon
  GI50: 398 nM
  TGI: 1530 nM
HOP-92 NSCLC
  GI50: 2680 nM
  TGI: 6.74 µM
UACC-62 melanoma
  GI50: 1420 nM
  TGI: 4.36 µM
SR leukemia
  GI50: 271 nM
  TGI: 5.78 µM
CCRF-CEM leukemia
  GI50: 346 nM
  TGI: > 45.3 µM
COLO 205 colon
  GI50: 447 nM
  TGI: 1410 nM
SN12C renal
  GI50: 1670 nM
  TGI: 4.76 µM
OVCAR-3 ovarian
  GI50: 679 nM
  TGI: 2160 nM
SK-MEL-2 melanoma
  GI50: 1600 nM
  TGI: 4.01 µM
EKVX NSCLC
  GI50: 2510 nM
  TGI: 9.23 µM
HCT-15 colon
  GI50: 617 nM
  TGI: 3.34 µM
KM12 colon
  GI50: 2090 nM
  TGI: 6.88 µM
DU-145 prostate
  GI50: 1520 nM
  TGI: 5.78 µM
MDA-MB-231 breast
  GI50: 1960 nM
  TGI: 5.75 µM
SNB-19 CNS
  GI50: 3.9 µM
  TGI: 15.7 µM
786-0 renal
  GI50: 1790 nM
  TGI: 3.64 µM
OVCAR-4 ovarian
  GI50: 2050 nM
  TGI: 9.53 µM
HOP-62 NSCLC
  GI50: 2880 nM
  TGI: 9.93 µM
NCI-H23 lung
  GI50: 1490 nM
  TGI: 4.3 µM
M14 melanoma
  GI50: 1230 nM
  TGI: 2880 nM
UACC-257 melanoma
  GI50: 1250 nM
  TGI: 3.35 µM
SF-268 CNS
  GI50: 2630 nM
  TGI: 15 µM
NCI-H522 lung
  GI50: 365 nM
  TGI: 884 nM
HS 578T breast
  GI50: 5.03 µM
  TGI: 65.6 µM
HCT-116 colon
  GI50: 468 nM
  TGI: 1440 nM
PC-3 prostate
  GI50: 2200 nM
  TGI: 9.26 µM
SK-OV-3 ovarian
  GI50: 2750 nM
  TGI: 7.69 µM
A498 renal
  GI50: 1630 nM
  TGI: 3.1 µM
HL-60(TB) leukemia
  GI50: 1220 nM
  TGI: 10.2 µM
OVCAR-8 ovarian
  GI50: 616 nM
  TGI: 4.29 µM
BT-549 breast
  GI50: 1920 nM
  TGI: 3.85 µM
RXF 393 renal
  GI50: 481 nM
  TGI: 1210 nM
LOX IMVI melanoma
  GI50: 364 nM
  TGI: 1500 nM
UO-31 renal
  GI50: 996 nM
  TGI: 2300 nM
NCI/ADR-RES ovarian
  GI50: 1060 nM
  TGI: 4.64 µM
SK-MEL-5 melanoma
  GI50: 1430 nM
  TGI: 2940 nM
K-562 leukemia
  GI50: 566 nM
  TGI: > 33.6 µM
SNB-75 CNS
  GI50: 3.76 µM
  TGI: 17.8 µM
NCI-H226 lung
  GI50: 1530 nM
  TGI: 3.82 µM
MDA-MB-435
  GI50: 570 nM
  TGI: 5.21 µM
T-47D breast
  GI50: 801 nM
  TGI: 3.2 µM
SF-295 CNS
  GI50: 2420 nM
  TGI: 7.08 µM
